# Key:
# [1] = biological target: T1, AR with coactivator ARA70 (Homo sapiens, UniProt P10275); experiment: ARA70 enhancement of AR transactivation, MMTV-Luc in DU145 cells with pSG5-AR and pSG5-ARA70; type: cell-based; conditions: DU145, pSG5-AR + MMTV-Luc with or without pSG5-ARA70
# T1 construct: expressed in transfected cells; host or cells: DU145
# T1 sequence (P10275 1-920): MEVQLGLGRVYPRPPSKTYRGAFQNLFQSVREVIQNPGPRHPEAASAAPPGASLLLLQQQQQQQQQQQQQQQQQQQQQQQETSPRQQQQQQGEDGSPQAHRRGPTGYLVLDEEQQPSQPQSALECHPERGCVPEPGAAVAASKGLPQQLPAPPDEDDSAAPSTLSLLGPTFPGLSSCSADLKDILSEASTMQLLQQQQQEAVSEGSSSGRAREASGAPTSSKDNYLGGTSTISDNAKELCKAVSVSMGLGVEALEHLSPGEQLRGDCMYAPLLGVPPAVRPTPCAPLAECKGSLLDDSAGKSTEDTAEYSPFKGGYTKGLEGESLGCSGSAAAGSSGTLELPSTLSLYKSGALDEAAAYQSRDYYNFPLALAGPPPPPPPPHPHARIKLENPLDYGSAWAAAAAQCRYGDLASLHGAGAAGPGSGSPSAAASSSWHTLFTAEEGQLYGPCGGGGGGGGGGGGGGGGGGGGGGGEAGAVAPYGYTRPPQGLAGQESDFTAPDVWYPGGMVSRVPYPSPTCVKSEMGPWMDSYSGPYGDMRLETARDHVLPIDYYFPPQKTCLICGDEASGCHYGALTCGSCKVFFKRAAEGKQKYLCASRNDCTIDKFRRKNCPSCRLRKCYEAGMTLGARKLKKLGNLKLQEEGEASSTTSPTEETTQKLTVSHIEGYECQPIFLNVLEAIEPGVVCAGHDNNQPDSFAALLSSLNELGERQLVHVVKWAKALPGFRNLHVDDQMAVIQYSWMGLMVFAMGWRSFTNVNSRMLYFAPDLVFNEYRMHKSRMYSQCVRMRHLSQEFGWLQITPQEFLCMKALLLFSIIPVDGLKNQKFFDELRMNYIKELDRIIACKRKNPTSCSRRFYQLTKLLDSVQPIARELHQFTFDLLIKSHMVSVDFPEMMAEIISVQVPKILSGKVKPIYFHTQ
# Method: (§1) Cell Culture, Transfection, and Reporter Gene Assay. The human prostate cancer cell lines, LNCaP, PC-3, and DU145, and non-prostate cancer cell line COS-1 were maintained in RPMI or Dulbecco's modified Eagle's medium (DMEM) (Life Technologies) supplemented with 10% fetal bovine serum (FBS). Transfections and luciferase (Luc) assays were performed as previously described (Miyamoto, H., Yeh, S., Wilding, G. & Chang, C. (1998) Proc. Natl. Acad. Sci. USA 95, 7379-7384; Miyamoto, H., Rahman, M., Takatera, H., Kang, H.-Y., Yeh, S., Chang, H.-C., Nishimura, K., Fujimoto, N. & Chang, C. (2002) J. Biol. Chem. 277, 4609-4617). Briefly, cells seeded to reach a density of 50-60% confluence in 12 well tissue culture plates were transfected with 1.5 μg of DNA according to “SuperFect transfection” instructions (Qiagen). After 2-3 h incubation, cells were treated with medium supplemented with charcoal-stripped FBS containing either ethanol or ligands for 24 h. The cells were then harvested and whole cell extracts were used for Luc assay. The Luc activity was determined using a Dual-Luciferase Reporter Assay System (Promega) and luminometer.
# The effects of ADEK on the DHT-induced transcriptional activity of AR was examined in COS-1 or LNCaP cells transfected with MMTV-Luc. The pSG5-AR was co-transfected in COS-1 cells. […] Values were obtained from the mean±SD of at least three determinations. […]
# [2] = system: PSA; experiment: PSA expression in LNCaP cells, Western blot; type: cell-based, human; conditions: 48 h, 1 μM compound + 1 nM DHT
# Method: Western Blot. […] An antibody for -actin (Santa Cruz Biotechnology) was used as the internal control. Blots were quantitated by Collage software (Fotodyne).
# The 33-kDa protein was quantitated. β-Actin expression was used as an internal control. […] The mean±SD of three separate experiments was determined. […] Total cell number was counted by hemocytometer. The mean of at least three determinations was determined.
# [3] = system: LNCaP cells; experiment: LNCaP cell growth, cell count by hemocytometer; type: cell-based, human
# Method: The mean±SD of three separate experiments was determined. […] Total cell number was counted by hemocytometer. The mean of at least three determinations was determined.
# [4] = biological target: T2, AR (Homo sapiens, UniProt P10275); experiment: Steroid hormone specificity, androgenic activity in PC-3 cells; type: cell-based; conditions: PC-3, ADEK at 0.01 mM, 0.1 mM and 1.0 mM, 24 h
# T2 construct: expressed in transfected cells; host or cells: PC-3
# T2 sequence (P10275 1-920): T1 sequence (P10275 1-920)
# Method: Cell Culture, Transfection, and Reporter Gene Assay. The human prostate cancer cell lines, LNCaP, PC-3, and DU145, and non-prostate cancer cell line COS-1 were maintained in RPMI or Dulbecco's modified Eagle's medium (DMEM) (Life Technologies) supplemented with 10% fetal bovine serum (FBS). Transfections and luciferase (Luc) assays were performed as previously described (Miyamoto, H., Yeh, S., Wilding, G. & Chang, C. (1998) Proc. Natl. Acad. Sci. USA 95, 7379-7384; Miyamoto, H., Rahman, M., Takatera, H., Kang, H.-Y., Yeh, S., Chang, H.-C., Nishimura, K., Fujimoto, N. & Chang, C. (2002) J. Biol. Chem. 277, 4609-4617). Briefly, cells seeded to reach a density of 50-60% confluence in 12 well tissue culture plates were transfected with 1.5 μg of DNA according to “SuperFect transfection” instructions (Qiagen). […] The Luc activity was determined using a Dual-Luciferase Reporter Assay System (Promega) and luminometer.
# Steroid Hormone Specificity of ADEK. To characterize the steroid hormone activity of ADEK, PC-3 cells were transfected with steroid receptor/reporter (progesterone receptor (PR)/MMTV-Luc, glucocorticoid receptor (GR)/MMTV-Luc, or estrogen receptor (ER)/ERE-Luc) and analyzed for expression of the Luc reporter gene. […] The Luc activity was measured relative to that of ETOH treatment (set as 1-fold). […]
# [5] = biological target: T3, wild-type AR (Homo sapiens, UniProt P10275); experiment: AR transcriptional activity (androgenic activity), MMTV-Luc reporter in PC-3 cells transfected with wild-type AR; type: cell-based; set-up: expressed in transfected cells; host or cells: PC-3; conditions: PC-3, wild-type AR plasmid + MMTV-Luc, compound at 1000 nM, 24 h
# T3 sequence (P10275 1-920): T1 sequence (P10275 1-920)
# Method: as §1
# Anti-DHT Effect of DHEA Derivatives with Low Androgenic Activity on AR Transcription. Test compounds as antiandrogenic compounds, were characterized by analysis of their ability to induce AR transcriptional activity in the AR-negative PC-3 cell line. The Luc activity was determined in the cell extracts with transient transfection of wild-type AR plasmid and androgen response element-reporter plasmid (mouse mammary tumor virus (MMTV)-Luc). After transfection, the cells were treated with various compounds at 0.1-1,000 nM.
# (§2) To accomplish these studies, PC-3 cells were transfected with the wild-type AR expression plasmid pSG5-AR and MMTV-Luc. […] The Luc activity was measured relative to that of ethanol treatment (set as 1-fold). Values from the mean±SD of at least three determinations were used. PC-3 cells were transfected with the pSG5-AR and MMTV-Luc. […] Values from the mean±SD of at least three determinations were obtained.
# [6] = biological target: T3, wild-type AR; experiment: Anti-DHT activity on AR transcription, MMTV-Luc reporter in PC-3 cells transfected with AR; type: cell-based; set-up: expressed in transfected cells; host or cells: PC-3; conditions: PC-3, 1 nM DHT, compound at 0.01, 0.1 or 1 μM, dose-dependent
# Method: as §1, §2
# [7] = biological target: T3, wild-type AR; experiment: Adiol-induced AR transcription, MMTV-Luc in PC-3 cells with pSG5-AR; type: cell-based; set-up: expressed in transfected cells; host or cells: PC-3; conditions: PC-3, 2.5 nM Adiol, compound at 1 μM
# Method: as §1
# Effect of ADEK on AR Transcription. […] (set as 100%). Values were obtained from the mean±SD of at least three determinations.
compound,measurement,setting,value
"CC(=O)O[C@H]1C=C[C@@]2(C)C(=CC[C@@H]3[C@@H]2CC[C@@]2(C)[C@H]3CCC23OCCO3)C1 [ADEK, 3β-acetoxy-17,17-ethylenedioxyandrosta-1,5-diene]",enhancement of AR transactivation by ARA70 in the presence of compound,[1],< 2 fold
same,DHT-induced PSA expression decreased to (DHT = 100%),[2],49%
same,"effect on LNCaP cell growth, DHT alone or compound with DHT (in words)","[3]; 1 nM DHT, 1 μM compound in presence of DHT",antagonized this DHT effect
same,effect on LNCaP cell growth in the absence of androgen (in words),"[3]; 1 μM compound, no DHT",marginally increased growth
same,androgenic activity (in words),[4],no significant
same,induction on AR transcription as compared to mock treatment,[5],marginal induction
same,DHT-induced AR transactivation suppressed to (Luc activity relative to DHT = 100%),[6],30%
same,repression of Adiol-induced AR transcription,[7],about 43%

# — patent US7638509B2, “Diene compounds and formulations” (priority 2003, dated 2009)
